Experimental data reported in patent US12116356B2, “N-heterocyclic five-membered ring-containing capsid protein assembly inhibitor, pharmaceutical composition thereof, and use thereof” (CHIA TAI TIANQING PHARMACEUTICAL GROUP CO., LTD., priority 2018, dated 2024).
pEC50, pIC50: −log10 of the molar value.

Assays:
[1] = system: HBV DNA in HepG2.2.15 cells; assay: In vitro cell HBV DNA inhibitory activity (anti-HBV activity) in HepG2.2.15 cells; type: cell-based; conditions: Hepatitis B virus, 144 h; anti-HBV activity in HepG2.2.15 cells, 6 days treatment, intracellular capsid HBV DNA by qPCR; read-out: EC50
Protocol: A bottle of HepG2.2.15 or HepAD38 cells in good exponential growth state was taken, washed once by adding 5 mL PBS, and then thereto was added 3 mL trypsin. After digesting at room temperature for 5 min, 2 mL trypsin was discarded, and then the sample was placed in a cell culture incubator and digested for 10 min. The cells were taken out from time to time and observed under a microscope (whether the cells were individually round and there was no adhesion between the cells). 10 mL complete medium was added to terminate the digestion. After pipetting into a single cell suspension, 10 μL of the cell suspension was taken out for cell counting with a cell counter, and then diluted with a complete medium and adjusted to a cell density of 1*10^5 cells/mL. Then the cell suspension was seeded at 1 mL/well in a 24-well plate with a multi-channel pipette (the 24-well plate was coated with 50 μg/mL Collagen I solution in advance), and cultured in a constant temperature CO2 incubator for 48 h.
Different compounds dissolved in DMSO were subjected to two-fold gradient dilution (10 concentrations in total) with complete medium. The compound was added, and fresh medium containing the compound was used to replace the spent medium every 72 hours. The cells were treated with the compound for 6 days. After the supernatant was siphoned off, 300 μL lysate (10 mM Tris-HCl, 1 mM EDTA, and 1% NP-40) was added to each well. After lysing at room temperature for 10 min, DNA was extracted, and HBV DNA in the intracellular viral capsid was measured by real-time fluorescence quantitative PCR. The inhibition rate was calculated based on the Ct value, and the EC50 value was calculated by the four-parameter method.

[2] = target: CYP 2B6 (Homo sapiens (Human), UniProt P20813); assay: CYP450 enzyme inhibition study (liver microsomes, subtype IC50); type: in vitro ADME; conditions: 30 minutes, read-out: Subtypes IC50 2B6
Protocol: (§1) 500 μL of a final incubation system contains 50 μL of liver microsomes (protein concentration: 0.2 mg/mL), 1 μL of mixed CYP450 specific substrates (CYP1A2, CYP 2B6, CYP 2C9, CYP2C19, CYP 2D6, and CYP 3A4), 398 μL PBS buffer (PH7.4), 1 μL specific positive inhibitor (positive control group) or the test compound (formulated with acetonitrile), and 50 μL NADPH+MgCl2. Duplicate incubation systems of 0.5 mL each were formulated for each CYP450 subtype. A total volume of 450 μL of a uniformly mixed solution of the substrate and the enzyme was formulated in each tube, and the solution and NADPH were pre-incubated at 37° C. for 5 minutes, respectively. Then 50 μL of the mixed solution of NADPH+MgCl2 was added for reaction. 50 μL of the reaction solution was taken out at 30 minutes, and the reaction was terminated with 300 μL of ice acetonitrile containing an internal standard. In addition, two control groups of 500 μL each without NADPH were prepared in parallel as a negative control group.
(§2) Sample pre-treatment: To 50 μL of the incubated sample was added 300 μL of ice acetonitrile containing an internal standard, and then precipitated. After vortexing for 5 minutes, the sample was centrifugated (12000 rpm, 4° C.) for 10 minutes. 75 μL of the supernatant was pipetted, and 75 μL of ultrapure water was added thereto for dilution and mixed uniformly. 1 μL of the resulting solution was injected for analysis.

[3] = target: CYP 2C9 (Homo sapiens (Human), UniProt P11712); assay: as above; type: in vitro ADME; conditions: 30 minutes, read-out: Subtypes IC50 2C9
Protocol: as §1, §2

[4] = target: CYP 2D6 (Homo sapiens (Human), UniProt P10635); assay: as above; type: in vitro ADME; conditions: 30 minutes, read-out: Subtypes IC50 2D6
Protocol: as §1, §2

[5] = target: CYP1A2 (Homo sapiens (Human), UniProt P05177); assay: as above; type: in vitro ADME
Protocol: as §1, §2

[6] = Plasma protein binding assay (equilibrium dialysis), human plasma; type: in vitro ADME
Protocol: (§3) Formulation of plasma sample: 495 μL of blank plasmas of the corresponding species (mouse, rat, dog, monkey, and human) were drawn respectively, and thereto was added 5 μL of the corresponding test compound solution or positive control to give plasma sample solutions having a plasma drug concentration of the compound of 1 μM, and 10 μM, respectively (formulated with acetonitrile).
(§4) The pre-treated dialysis membrane was placed in a high-throughput equilibrium dialysis device, and 100 μL of the plasma sample solution and PBS buffer solution were drawn and added respectively to both sides of the dialysis membrane (sample side and buffer side) (n=3). After the equilibration device was sealed with a film, it was incubated at 37° C. overnight (100 rpm). After dialysis equilibrium was reached, 50 μL samples were drawn from the sample side and the buffer side, respectively, and the reaction was terminated by adding ice acetonitrile containing an internal standard.
as §2, with “plasma-side” for “incubated”, “450” for “300”, “analysis. To 50 μL of the PBS-side sample was added 250 μL of ice acetonitrile with an internal standard, and precipitated. After vortexing for 5 min, the sample was centrifugated (12000 rpm, 4° C.) for 10 min. 75 μL of the supernatant was pipetted, and 75 μL of ultrapure water was added thereto for dilution and mixed uniformly. 2 μL of the resulting solution was injected for analysis.” for “analysis.”

[7] = Plasma protein binding assay (equilibrium dialysis), rat plasma; type: in vitro ADME
Protocol: as §3, §4
as §2, with “plasma-side” for “incubated”, “450” for “300”, “analysis. To 50 μL of the PBS-side sample was added 250 μL of ice acetonitrile with an internal standard, and precipitated. After vortexing for 5 min, the sample was centrifugated (12000 rpm, 4° C.) for 10 min. 75 μL of the supernatant was pipetted, and 75 μL of ultrapure water was added thereto for dilution and mixed uniformly. 2 μL of the resulting solution was injected for analysis.” for “analysis.”

[8] = Plasma protein binding assay (equilibrium dialysis), mouse plasma; type: in vitro ADME
Protocol: as §3, §4
as §2, with “plasma-side” for “incubated”, “450” for “300”, “analysis. To 50 μL of the PBS-side sample was added 250 μL of ice acetonitrile with an internal standard, and precipitated. After vortexing for 5 min, the sample was centrifugated (12000 rpm, 4° C.) for 10 min. 75 μL of the supernatant was pipetted, and 75 μL of ultrapure water was added thereto for dilution and mixed uniformly. 2 μL of the resulting solution was injected for analysis.” for “analysis.”

[9] = Plasma protein binding assay (equilibrium dialysis), dog plasma; type: in vitro ADME
Protocol: as §3, §4
as §2, with “plasma-side” for “incubated”, “450” for “300”, “analysis. To 50 μL of the PBS-side sample was added 250 μL of ice acetonitrile with an internal standard, and precipitated. After vortexing for 5 min, the sample was centrifugated (12000 rpm, 4° C.) for 10 min. 75 μL of the supernatant was pipetted, and 75 μL of ultrapure water was added thereto for dilution and mixed uniformly. 2 μL of the resulting solution was injected for analysis.” for “analysis.”

[10] = system: HBV (recombinant plasmid pHBV 1.3); assay: Antiviral effect evaluation in HDI mouse model; type: in vivo, C57BL/6 mice; conditions: 30 mg/kg intragastric once daily for 6 days
Protocol: 6-8 week old male C57BL/6 mice was used, and each mouse was injected with purified recombinant plasmid pHBV 1.3 (10 μg) dissolved in PBS equivalent to a volume of about 10% of its body weight through the tail vein within 3-8 s. Blood was collected from the orbits of the mice at 24 hours after the plasmid injection to detect serum HBV DNA. The model mice having uniform serum DNA were selected and divided into: a blank control group, a vehicle control group, and a test substance group. Mice in each group were continuously administered intragastrically once daily for 6 days at a dose of 30 mg/kg. The mouse serum was taken on day 1, 3, 5, and 7 after the injection, and the mice were sacrificed on day 7 to take liver tissue samples. The HBV DNA copy numbers in serum and liver of the mice were detected by fluorescent quantitative PCR method.

CYP 2D6, sequence (P10635 whole entry): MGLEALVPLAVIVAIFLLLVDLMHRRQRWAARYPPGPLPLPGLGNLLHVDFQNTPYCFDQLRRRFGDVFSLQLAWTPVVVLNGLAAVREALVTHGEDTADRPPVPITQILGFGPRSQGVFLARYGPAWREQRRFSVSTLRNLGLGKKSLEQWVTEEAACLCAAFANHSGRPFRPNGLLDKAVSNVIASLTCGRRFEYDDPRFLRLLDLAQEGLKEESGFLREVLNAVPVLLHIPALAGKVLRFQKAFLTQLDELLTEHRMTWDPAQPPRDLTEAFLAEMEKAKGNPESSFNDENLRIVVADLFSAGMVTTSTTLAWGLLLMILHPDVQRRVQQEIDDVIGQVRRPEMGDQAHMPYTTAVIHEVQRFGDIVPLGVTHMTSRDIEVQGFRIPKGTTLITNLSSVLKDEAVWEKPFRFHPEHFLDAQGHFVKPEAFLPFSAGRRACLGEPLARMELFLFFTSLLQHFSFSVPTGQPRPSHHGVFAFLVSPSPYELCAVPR
CYP1A2, sequence (P05177 whole entry): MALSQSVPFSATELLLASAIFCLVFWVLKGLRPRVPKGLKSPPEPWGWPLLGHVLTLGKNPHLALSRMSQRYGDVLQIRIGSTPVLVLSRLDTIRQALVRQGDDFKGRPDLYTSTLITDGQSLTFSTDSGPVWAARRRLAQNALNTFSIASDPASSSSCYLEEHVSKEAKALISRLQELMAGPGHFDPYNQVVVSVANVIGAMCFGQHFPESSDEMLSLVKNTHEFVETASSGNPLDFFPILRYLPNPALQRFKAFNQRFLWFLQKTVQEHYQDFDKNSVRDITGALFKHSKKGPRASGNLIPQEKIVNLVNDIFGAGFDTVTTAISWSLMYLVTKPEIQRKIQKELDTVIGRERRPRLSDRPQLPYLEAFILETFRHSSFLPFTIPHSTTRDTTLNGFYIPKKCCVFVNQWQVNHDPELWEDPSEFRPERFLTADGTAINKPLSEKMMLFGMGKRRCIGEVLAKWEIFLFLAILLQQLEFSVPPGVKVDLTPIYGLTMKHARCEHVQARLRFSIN
CYP 2B6, sequence (P20813 whole entry): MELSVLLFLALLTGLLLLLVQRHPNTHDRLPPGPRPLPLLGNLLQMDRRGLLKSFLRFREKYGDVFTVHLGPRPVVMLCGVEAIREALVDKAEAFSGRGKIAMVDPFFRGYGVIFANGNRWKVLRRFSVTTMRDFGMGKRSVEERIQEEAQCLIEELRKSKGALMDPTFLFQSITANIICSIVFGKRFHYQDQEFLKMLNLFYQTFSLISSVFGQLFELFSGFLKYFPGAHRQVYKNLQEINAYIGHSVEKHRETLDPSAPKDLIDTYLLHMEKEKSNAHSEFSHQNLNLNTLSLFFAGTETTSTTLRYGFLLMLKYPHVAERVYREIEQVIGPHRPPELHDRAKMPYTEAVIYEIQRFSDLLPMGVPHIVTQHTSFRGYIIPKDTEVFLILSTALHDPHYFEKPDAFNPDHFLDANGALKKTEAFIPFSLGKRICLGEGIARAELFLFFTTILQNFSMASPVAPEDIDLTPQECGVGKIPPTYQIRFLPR
CYP 2C9, sequence (P11712 whole entry): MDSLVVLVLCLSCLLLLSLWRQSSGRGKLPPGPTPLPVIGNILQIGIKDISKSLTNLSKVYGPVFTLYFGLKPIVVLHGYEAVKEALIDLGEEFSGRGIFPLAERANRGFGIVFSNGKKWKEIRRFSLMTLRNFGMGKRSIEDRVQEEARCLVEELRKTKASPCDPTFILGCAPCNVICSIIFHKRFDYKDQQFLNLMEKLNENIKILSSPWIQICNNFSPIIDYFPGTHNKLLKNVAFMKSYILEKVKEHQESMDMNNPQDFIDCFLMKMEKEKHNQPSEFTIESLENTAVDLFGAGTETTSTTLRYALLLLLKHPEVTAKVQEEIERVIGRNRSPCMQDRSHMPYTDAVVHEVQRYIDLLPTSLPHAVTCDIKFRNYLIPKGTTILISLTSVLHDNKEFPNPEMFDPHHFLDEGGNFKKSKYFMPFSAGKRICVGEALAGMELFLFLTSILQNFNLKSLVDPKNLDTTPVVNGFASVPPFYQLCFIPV

Compound	pEC50 [1]	pIC50 [2]	pIC50 [3]	pIC50 [4]	pIC50 [5]	Binding rate ([6]; 1 μM)	Binding rate ([6]; 10 μM)	Binding rate ([7]; 1 μM)	Binding rate ([7]; 10 μM)	Binding rate ([8]; 1 μM)	Binding rate ([8]; 10 μM)	Binding rate ([9]; 1 μM)	Binding rate ([9]; 10 μM)	Reduction levels (log10) of HBV DNA in semm on day 5 [10]
Cc1c(C(=O)Nc2ccc(F)c(C#N)c2)c(C)n(C)c1C(=O)C(=O)NC1(C(F)(F)F)COC1 [Example 25, N-(3-cyano-4-fluorophenyl)-1,2,4-trimethyl-5-(2-oxo-2-((3-(trifluoromethyl)oxetan-3-yl)amino)acetyl)-1H-pyrrole-3-carboxamide]	> 8.00	4.21	4.78	3.92	3.64	92.9%	92.2%	79.5%	77.0%	76.5%	74.7%	87.0%	86.8%	1.73 log10
Cc1c(C(=O)Nc2ccc(F)c(C#N)c2)c(C)n(C)c1C(=O)C(=O)N[C@@H](C)C(F)(F)F [Example 12]	> 8.00	3.84	4.10	3.65	4.33	94.0%	93.7%	82.0%	79.2%	75.3%	74.5%	85.9%	85.9%	2.17 log10
